Values of other authors, collected in patent US12571046B2, “Methods of detecting and treating multiple system atrophy” (THE TRANSLATIONAL GENOMICS RESEARCH INSTITUTE, priority 2020, dated 2026).

Columns and labels:
[1] = tested on: conditional QKI knock-out mouse model; details: conditional QKI-KO mouse; PPARβ and RXR agonists; literature ref [82]/[96]
α-synuclein = α-synuclein (Homo sapiens, UniProt P37840); details: in vitro; interaction at N-terminus of α-synuclein; literature ref [65]

Compound	effect on QKI deficiency-induced demyelination [1]	effect on α-synuclein fibrillization (α-synuclein)
C[C@@H]1CN(c2ccc(OC(F)(F)F)cc2)C[C@H](C)N1S(=O)(=O)c1cccc2c1C[C@@H](C(=O)O)C2.Cc1ccc(S(=O)(=O)O)cc1 [KD3010]	alleviate QKI deficiency-induced demyelination in the mouse	–
C=C(c1ccc(C(=O)O)cc1)c1cc2c(cc1C)C(C)(C)CCC2(C)C [bexarotene]	alleviate QKI deficiency-induced demyelination in the mouse	–
Vitamin K	–	delays α-synuclein fibrillization
